{"source": "ChEMBL document CHEMBL5360653", "about": "“Marine Alkaloid Lepadins E and H Induce Ferroptosis for Cancer Chemotherapy” (J Med Chem, 2023)", "key": {"[1]": {"tested_on": "HeLa", "assay": "Cytotoxicity against human HeLa cells incubated for 72 hrs by MTT assay", "assay_type": "functional, cell-based"}, "[2]": {"tested_on": "HeLa", "assay": "Effect on lipid peroxidation in human HeLa cells incubated at 200 nM for 4 hrs by C11-BODIPY581/591 staining based flow cytometric analysis", "assay_type": "functional, cell-based"}, "[3]": {"tested_on": "HeLa", "assay": "Cytotoxicity against human HeLa cells assessed as increase in cell viability at 200 nM for 4 hrs relative to control", "assay_type": "functional"}}, "note": "pIC50: −log10 of the molar value. The source made the active and inactive calls. The calls are words filed in the database; no cut-off is given here.", "data": [{"compound": "CCCCCCCC(=O)O[C@@H]1C[C@H]2[C@@H](CCCC[C@H](O)CCC)CCC[C@H]2N[C@H]1C", "values": [{"measurement": "pIC50", "setting": "[1]", "value": 4.93}]}, {"compound": "CCC[C@@H](O)CCCC[C@H]1CCC[C@H]2N[C@@H](C)[C@H](O)C[C@@H]12", "values": [{"measurement": "pIC50", "setting": "[1]", "value": "< 4.70"}]}, {"compound": "Clc1cccc(CNC2=Nc3ccccc3NC23CCNCC3)c1", "values": [{"measurement": "Activity", "setting": "[2]", "value": "Active"}, {"measurement": "Activity", "setting": "[3]", "value": 5, "unit": "%"}]}, {"compound": "CCCCC/C=C/C(=O)OC", "values": [{"measurement": "pIC50", "setting": "[1]", "value": "< 4.70"}]}, {"compound": "CCC/C=C/C=C/C(=O)OC", "values": [{"measurement": "pIC50", "setting": "[1]", "value": "< 4.70"}]}]}
